The text below walks through data of ChEMBL document CHEMBL1201862, “PubChem BioAssay data set” (2004).

Test systems include A498; ACHN; BT-549; CAKI-1; DU-145; HL-60; HT-29; LOX IMVI; OVCAR-8; PC-3; SF-268; SK-MEL-28; SK-MEL-2; SNB-75; SW-620; TK-10; UACC-62; HCC 2998; MDA-N; SR.
Holding throughout (test): growth of human tumour cells (NCI), 48 h

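Grown in 96-well plates, cells were treated for 48 hours with each compound at five concentrations. Insufficient inhibition: endpoint recorded as highest concentration tested. GI50: concentration for 50% inhibition of growth.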 Calls of active or inactive are those of the source. No stated cut-off is given here; in the data, active = GI50 up to about 1.1 µM and inactive = higher. Peptide text beside a SMILES is read from it. * marks the point of attachment. Boc = CC(C)(C)OC(=O)*; OBn = c1ccc(CO*)cc1; Bn = c1ccc(C*)cc1

In the case of `O=S(=O)(Nc1nccs1)c1ccc([As](=O)(O)O)cc1`, the GI50 in the experiment with A498, with ACHN, with BT-549, with CAKI-1, in the experiment on DU-145 and in the experiment with HL-60 was > 100 µM (inactive) each time. The GI50 in the experiment on HT-29, in the experiment on LOX IMVI, in the experiment with OVCAR-8, in the experiment with PC-3, in the experiment on SF-268 and in the experiment on SK-MEL-28 was > 100 µM (inactive) throughout. Moreover, the GI50 in the experiment on SK-MEL-2, in the experiment on SNB-75, in the experiment on SW-620, in the experiment on TK-10 and in the experiment on UACC-62 was > 100 µM (inactive) in each case.
With `O=C(O)C1(CC(CCCN2CCCCC2)c2ccccc2)CCCC1` (configuration not stated), the GI50 in the experiment on A498, in the experiment on ACHN, in the experiment with CAKI-1, with DU-145, in the experiment with HCC 2998 and in the experiment on HL-60 was > 100 µM (inactive) in each case. In addition, the GI50 in the experiment on HT-29, with LOX IMVI, in the experiment with MDA-N, with OVCAR-8, with PC-3 and with SF-268 was > 100 µM (inactive) throughout. In addition, the GI50 with SK-MEL-28, in the experiment on SK-MEL-2, in the experiment with SNB-75, in the experiment on SR, with SW-620 and with TK-10 was > 100 µM (inactive) throughout. Besides, the GI50 in the experiment with UACC-62 is > 100 µM (inactive).
On to `CC(Oc1ccc(Cl)cc1Cl)C(=O)NN1C(=O)CSC1c1ccc(Cl)cc1` (configuration not stated), for which the GI50 is 25.2 µM (inactive) with A498; 42.5 µM (inactive) in the experiment on ACHN; 43.7 µM (inactive) with BT-549; 18.9 µM (inactive) in the experiment with CAKI-1; 63.5 µM (inactive) with DU-145; 54.8 µM (inactive) in the experiment on HCC 2998. Further, the GI50 with HL-60 is 35.3 µM (inactive); in the experiment with HT-29, 70.1 µM (inactive); with LOX IMVI it was 56 µM (inactive); in the experiment with OVCAR-8, 46.9 µM (inactive); with PC-3, 38.5 µM (inactive); with SF-268 it was 88.7 µM (inactive). Moreover, the GI50 in the experiment on SK-MEL-28 is 67.3 µM (inactive); in the experiment with SK-MEL-2, 56.1 µM (inactive); in the experiment with SNB-75 it was 27.9 µM (inactive); in the experiment with SR, 19.5 µM (inactive); in the experiment with SW-620, > 100 µM (inactive); with TK-10 it was 80.5 µM (inactive). In the experiment on UACC-62, the GI50 is 43.5 µM (inactive).
On to `Cc1nc2ccc(Cl)cc2c(Cl)c1CCCl`, for which the GI50 was 83 µM (inactive) with A498; > 100 µM (inactive) in the experiment with ACHN; 54 µM (inactive) in the experiment with CAKI-1; 43.7 µM (inactive) with DU-145; 30.7 µM (inactive) with HCC 2998; 46.6 µM (inactive) in the experiment on HL-60. Moreover, the GI50 in the experiment on HT-29 was 27.2 µM (inactive); in the experiment with LOX IMVI it was 43.6 µM (inactive); in the experiment with MDA-N it was 8.15 µM (inactive); in the experiment on OVCAR-8, 62.4 µM (inactive); in the experiment on PC-3, 80.7 µM (inactive); with SF-268 it was > 100 µM (inactive). The GI50 is > 100 µM (inactive) in the experiment with SK-MEL-28; 29.6 µM (inactive) in the experiment with SK-MEL-2; 29.4 µM (inactive) in the experiment with SNB-75; 34.4 µM (inactive) with SR; 40.2 µM (inactive) with SW-620; > 100 µM (inactive) with TK-10. Besides, the GI50 with UACC-62 is 28.1 µM (inactive).
Take `CN(C)CCCNC1=C(Cl)C(=O)c2c(O)ccc(O)c2C1=O`: the GI50 is > 10 µM (inactive) in the experiment on A498; 6.1 µM (inactive) with ACHN; 1.6 µM (inactive) with BT-549; > 10 µM (inactive) in the experiment on CAKI-1; 1.82 µM (inactive) in the experiment on DU-145; 1.79 µM (inactive) in the experiment with HCC 2998. The GI50 is 2.17 µM (inactive) in the experiment with HT-29; 1.67 µM (inactive) in the experiment with LOX IMVI; 1.85 µM (inactive) in the experiment with MDA-N; 3.27 µM (inactive) in the experiment with OVCAR-8; 2.54 µM (inactive) in the experiment with PC-3; 1 µM (active) with SF-268. Further, the GI50 is 1.52 µM (inactive) in the experiment with SK-MEL-28; 9.04 µM (inactive) in the experiment with SNB-75; 1.82 µM (inactive) in the experiment with SW-620; 3.84 µM (inactive) with TK-10; 1.59 µM (inactive) with UACC-62.
As to `Cc1ccc(S(=O)(=O)NC(=O)Nc2cc(Cl)c(S(N)(=O)=O)cc2S(N)(=O)=O)cc1`, the GI50 in the experiment with BT-549, with CAKI-1, in the experiment on DU-145, with HL-60, in the experiment on HT-29 and with LOX IMVI was > 100 µM (inactive) each time. Besides, the GI50 in the experiment with MDA-N, in the experiment on OVCAR-8, in the experiment on SF-268, with SK-MEL-28, in the experiment with SK-MEL-2 and with SNB-75 was > 100 µM (inactive) in each case. Further, the GI50 in the experiment with SW-620, in the experiment with TK-10 and in the experiment with UACC-62 was > 100 µM (inactive) each time.
`CCOc1ccc2nc3nc(O)nc(C)c3c(NC(C)(CO)CO)c2c1`: the GI50 in the experiment with A498, in the experiment with ACHN, in the experiment with BT-549, in the experiment with CAKI-1, with DU-145 and in the experiment with HCC 2998 was > 100 µM (inactive) each time. Besides, the GI50 in the experiment on HL-60, in the experiment with HT-29, in the experiment on LOX IMVI, with MDA-N, with OVCAR-8 and in the experiment on PC-3 was > 100 µM (inactive) throughout. For the same compound, the GI50 in the experiment with SF-268, in the experiment on SK-MEL-28, in the experiment on SK-MEL-2, in the experiment on SNB-75, with SW-620 and with TK-10 was > 100 µM (inactive) in each case. Also, the GI50 in the experiment on UACC-62 is > 100 µM (inactive).
`O=C1c2ccccc2C(=O)c2sc(Nc3cc(Cl)ccc3Cl)nc21`: the GI50 in the experiment on A498 was 21 µM (inactive); in the experiment on ACHN, 5.3 µM (inactive); in the experiment on CAKI-1 it was 5.02 µM (inactive); in the experiment with DU-145, 8.57 µM (inactive); with HCC 2998, 5.86 µM (inactive); in the experiment on HL-60, 0.736 µM (active). For the same compound, the GI50 in the experiment on HT-29 was 14.1 µM (inactive); in the experiment on LOX IMVI, 2.28 µM (inactive); with MDA-N, 1.82 µM (inactive); in the experiment on OVCAR-8, 3.77 µM (inactive); in the experiment with PC-3, 3.21 µM (inactive); with SF-268, 4.09 µM (inactive). The GI50 in the experiment with SK-MEL-28 is 6.7 µM (inactive); in the experiment on SK-MEL-2, 11.4 µM (inactive); in the experiment on SNB-75, 15.1 µM (inactive); in the experiment with SR, 2.52 µM (inactive); with SW-620, 2.94 µM (inactive); in the experiment on TK-10, 15 µM (inactive). Further, the GI50 in the experiment with UACC-62 was 2.49 µM (inactive).
Regarding `CC(C)C(NC(=O)C(Cc1ccccc1)NC(=O)[C@H]1CCC[C@H]1NC(=O)C(N)Cc1ccc(O)cc1)C(N)=O` (some centres not stated), the GI50 with A498, with ACHN, in the experiment on CAKI-1, in the experiment on DU-145, in the experiment with HCC 2998 and in the experiment on HL-60 was > 100 µM (inactive) in each case. For the same compound, the GI50 in the experiment on HT-29, in the experiment with LOX IMVI, in the experiment with MDA-N, in the experiment on OVCAR-8, in the experiment on PC-3 and in the experiment on SF-268 was > 100 µM (inactive) in each case. The GI50 in the experiment on SK-MEL-28, with SK-MEL-2, with SNB-75, with SR, with SW-620 and in the experiment on TK-10 was > 100 µM (inactive) in each case. Further, the GI50 with UACC-62 was > 100 µM (inactive).
For `O=C(O)c1cc(C(=O)C(=O)c2cc(C(=O)O)c(O)c3ccccc23)c2ccccc2c1O`, the GI50 in the experiment with A498, with ACHN, in the experiment on BT-549, in the experiment on CAKI-1, with DU-145 and in the experiment with HCC 2998 was > 100 µM (inactive) each time. Also, the GI50 in the experiment on HT-29, in the experiment with LOX IMVI, with MDA-N, in the experiment on OVCAR-8, in the experiment on PC-3 and with SF-268 was > 100 µM (inactive) in each case. The GI50 in the experiment with SK-MEL-28, in the experiment with SK-MEL-2, in the experiment on SNB-75, in the experiment with SW-620, with TK-10 and in the experiment with UACC-62 was > 100 µM (inactive) in each case.
On to `CC(C)CC(NC(=O)C(CCC(=O)OCc1ccccc1)NC(=O)OC(C)(C)C)C(=O)NC(COCc1ccccc1)C(=O)NC(Cc1ccccc1)C(=O)O` (configuration not stated) (Boc-E(OBn)LS(Bn)F-OH; configuration not given here), for which the GI50 with A498, in the experiment on ACHN, in the experiment on BT-549, with HCC 2998, in the experiment with HL-60 and in the experiment on HT-29 was > 100 µM (inactive) each time. For the same compound, the GI50 is > 100 µM (inactive) in the experiment with MDA-N; > 100 µM (inactive) in the experiment on OVCAR-8; > 100 µM (inactive) in the experiment with PC-3; > 100 µM (inactive) in the experiment with SK-MEL-28; > 100 µM (inactive) in the experiment on SK-MEL-2; 96.8 µM (inactive) in the experiment on SNB-75. In addition, the GI50 in the experiment on SR, with SW-620, with TK-10 and in the experiment on UACC-62 was > 100 µM (inactive) in each case.
